# In publication PMC2932872 (Journal of agricultural and food chemistry, 2010):
# Values joined by “and” are separate entries in the source; they are usually repeats but may differ in a detail not shown here. Identical values can stand only once.
# Experiments:
# SH-SY5Y cells [1] = assay: MTT viability assay; format: cell-based, human; conditions: for cytotoxicity (in words): 50 μM, 48 and 72 h
# SH-SY5Y cells [2] = assay: Fate in uptake experiments: OP and degradation products in cell cytosol; format: in vitro ADME, human; conditions: for uptake rate constant / amount of parent OP in the cytosol / total uptake (OP and degradation products): 1 μM exposure; for total uptake (OP and degradation products): 48 h (maximum); for OP associated with the membrane fraction (in words): uptake experiments; for Percentage of MPS in cell cytosol (per 10^6 cells) / Relative ratio of MPS in cell cytosol: 1 μM of OP
# [3] = Stability of ^14C-MPS and ^14C-MPO in culture media; format: physicochemical; conditions: 1 μM; for OP recovered from the media unchanged: 72 h incubation in media, 37 °C
# SH-SY5Y cells [4] = assay: Preliminary uptake of ^14C-MPS and ^14C-MPO in SH-SY5Y cells; format: in vitro ADME, human; conditions: 1 μM exposure; for share of total applied radioactivity that entered the cells: at the most
# [5] = cited from earlier work
# [6] = Fate in uptake experiments: OP and degradation products in culture media; format: in vitro ADME; conditions: cells exposed to 1 μM of OP
# [7] = target: acetylcholinesterase (AChE, EC 3.1.1.7); conditions: cited from earlier work
structure (smiles),measurement,setting,value
"COP(=O)(OC)Oc1ccc([N+](=O)[O-])cc1 [MPO, methyl paraoxon]",cytotoxicity (in words),SH-SY5Y cells [1],Some cytotoxicity
same,cytotoxicity,"SH-SY5Y cells [1]; 100 μM, all time points (24, 48, 72 h)",at least 60%
same,uptake rate constant,SH-SY5Y cells [2],0.025 h⁻¹
same,amount of parent OP in the cytosol,SH-SY5Y cells [2]; 48 h,0.37 nM/10^6 cells
same,total uptake (OP and degradation products),SH-SY5Y cells [2],1.76 nM/10^6 cells
same,OP associated with the membrane fraction (in words),SH-SY5Y cells [2],negligible amount
same,OP recovered from the media unchanged,[3],more than 50%
same,share of total applied radioactivity that entered the cells,SH-SY5Y cells [4],≤ 5%
same,maximum level of uptake (total amount of OP inside cells),SH-SY5Y cells [4]; maximum at 48 h,46 nM
"COP(=S)(OC)Oc1ccc([N+](=O)[O-])cc1 [MPS, OO, -dimethyl O-4-nitrophenyl phosphorothioate]",Log Po/w,[5],3.0
same,cytotoxicity (in words),SH-SY5Y cells [1],Some cytotoxicity
same,cell viability (in words),"SH-SY5Y cells [1]; 100 μM, 24 h",no significant decrease in viability
same,cytotoxicity,"SH-SY5Y cells [1]; 100 μM, 24 h",4–5% and 4%
same,cytotoxicity,"SH-SY5Y cells [1]; 100 μM, 48 h",~ 60% and 60%
same,cytotoxicity,"SH-SY5Y cells [1]; 100 μM, 72 h",90%
same,uptake rate constant,SH-SY5Y cells [2],0.054 h⁻¹
same,amount of parent OP in the cytosol,SH-SY5Y cells [2]; 48 h,0.54 nM/10^6 cells
same,total uptake (OP and degradation products),SH-SY5Y cells [2],1.19 nM/10^6 cells
same,Percentage of MPS in cell cytosol (per 10^6 cells),SH-SY5Y cells [2]; 24 h,0.036 ± 0.001%
same,Relative ratio of MPS in cell cytosol,SH-SY5Y cells [2]; 24 h,45.3 ± 1.5
same,Percentage of MPS in cell cytosol (per 10^6 cells),SH-SY5Y cells [2]; 48 h,0.054 ± 0.006%
same,Relative ratio of MPS in cell cytosol,"SH-SY5Y cells [2]; 48 h, listed as 14C-MPS",46 and 45.8 ± 2.0
same,Percentage of MPS in cell cytosol (per 10^6 cells),SH-SY5Y cells [2]; 72 h,0.043 ± 0.004%
same,Relative ratio of MPS in cell cytosol,SH-SY5Y cells [2]; 72 h,43.5 ± 1.8
same,OP associated with the membrane fraction (in words),SH-SY5Y cells [2],negligible amount
same,Relative ratio of MPS in culture media,[6]; 24 h,74.3 ± 1.0
same,Relative ratio of MPS in culture media,[6]; 48 h,63.9 ± 0.1
same,Relative ratio of MPS in culture media,[6]; 72 h,52.9 ± 0.8
same,OP recovered from the media unchanged,[3],more than 50%
same,^14C-MPO formed by oxidation in media,[3]; after 4 days in media,less than 1%
same,share of total applied radioactivity that entered the cells,SH-SY5Y cells [4],≤ 5%
same,maximum level of uptake (total amount of OP inside cells),SH-SY5Y cells [4]; maximum at 24 h,13 nM
CCOP(=S)(OCC)Oc1ccc([N+](=O)[O-])cc1 [Parathion],IC50 (cholinesterase inhibition),[7],10^−4 to 10^−5 M
CCOP(=O)(OCC)Oc1ccc([N+](=O)[O-])cc1 [ethyl paraoxon],Log Po/w,[5],1.6
CCOP(=O)(OCC)Oc1ccc([N+](=O)[O-])cc1 [paraoxon],IC50,[7]; read-out: IC50 (inhibition of AChE),10 nM
